Data set [1] in a line: Lipid nanoparticle size by dynamic light scattering (Malvern Zetasizer Nano ZS). The data set is classed as physicochemical. The following applies: LNP: cationic lipid/DSPC/cholesterol/PEG-lipid 50:10:38.5:1.5, hEPO mRNA. The method, then: (§1) Briefly, a cationic lipid provided herein, DSPC, cholesterol, and PEG-lipid were solubilized in ethanol at a molar ratio of 50:10:38.5:1.5, and mRNA were diluted in 10 to 50 mM citrate buffer, pH=4. The LNPs were prepared at a total lipid to mRNA weight ratio of approximately 10:1 to 30:1 by mixing the ethanolic lipid solution with the aqueous mRNA solution at a volume ratio of 1:3 using a microfluidic apparatus, total flow rate ranging from 9-30 mL/min. Ethanol were thereby removed and replaced by DPBS using dialysis. Finally, the lipid nanoparticles were filtered through a 0.2 μm sterile filter.
(§2) Lipid nanoparticle size were determined by dynamic light scattering using a Malvern Zetasizer Nano ZS (Malvern UK) using a 173° backscatter detection mode. The encapsulation efficiency of lipid nanoparticles were determined using a Quant-it Ribogreen RNA quantification assay kit (Thermo Fisher Scientific, UK) according to the manufacturer's instructions.

Data set [2] is described as follows: Apparent pKa of LNP formulations (TNS fluorescence assay). Conditions: LNP cationic lipid/DSPC/cholesterol/DMG-PEG 50/10/38.5/1.5 mol %.
The nature of data set [3]: Encapsulation efficiency of lipid nanoparticles (Quant-it Ribogreen RNA quantification assay). Conditions: LNP encapsulating hEPO mRNA. The data set is classed as physicochemical. The method, then: as §1, §2
The test system of data set [4] is human erythropoietin (hEPO) mRNA. Nature of the data set: Animal study: hEPO expression after tail vein injection of LNPs encapsulating hEPO mRNA (serum ELISA). The data set is classed as in vivo. Conditions: hEPO level, female ICR mice, 0.5 mg/kg, 6 hours post administration; for Expression at 6 h (μg/ml): class symbols, Table 3; for Expression at 6 h: Table 2. On the procedure: Lipid nanoparticles comprising compounds 1-10 encapsulating human erythropoietin (hEPO) mRNA were systemically administered to 6-8 week old female ICR mice (Xipuer-Bikai, Shanghai) at 0.5 mg/kg dose by tail vein injection and mice blood were sampled at specific time points (e.g., 6 hours) post administration. In addition to the aforementioned tested groups, lipid nanoparticles comprising dilinoleylmethyl-4-dimethylaminobutyrate (DLin-MC3-DMA, usually abbreviated to MC3) encapsulating hEPO mRNA were similarly administered at the same dose to age and gender comparative groups of mice as a positive control.
Mice were euthanized by CO2 overdoses after the last sampling time point. Serum were separated from total blood by centrifugation at 5000 g for 10 minutes at 4° C., snap-frozen and stored at −80° C. for analysis. ELSA assay were carried out using a commercial kit (DEP00, R&D systems) according to manufacturer's instructions.
Characteristics of tested lipid nanoparticles, including hEPO expression levels (μg/ml) measured from the tested group are listed the tables below and plotted in FIG. 2.

Regarding `CCCCCCCCC(CCCCCC)COC(=O)CCCCCC(CCCCCC(=O)OCC(CCCCCC)CCCCCCCC)CCCN(C)CCO` (stereo not drawn) [Compound 18], in data set [1] (Table 3), the polydispersity stood at 0.15 and the size nm is reported as 71.85 nm. The “Apparant Pka” value in data set [2] (Table 3) is given as 6.327. Also, the “Encapsulation Efficiency” value in data set [3] (Table 3) is 100.16%. Besides, in data set [4], the “Expression at 6 h (μg/ml)” value was “C (≥0.1 and <1)”.

Take `CCCCCCCCC(CCCCCC)COC(=O)CCCCCN(CCCCCC(=O)OCC(CCCCCC)CCCCCCCC)CCN(C(C)C)C1CCC(O)CC1` (stereo not drawn) [Compound 57]: in data set [1] (Table 3), the polydispersity amounted to 0.063 and the size nm came out at 93.52 nm. In addition, the “Apparant Pka” value in data set [2] (Table 3) came out at 6.645. For the same compound, the “Encapsulation Efficiency” value in data set [3] (Table 3) was 96.1%. Further, the “Expression at 6 h (μg/ml)” value in data set [4] is given as “A (≥2)”.

As to `CCCCCCCCC(CCCCCC)COC(=O)CCCCCN(CCCCCC(=O)OCC(CCCCCC)CCCCCCCC)CCN(C)CCO` (stereo not drawn) [Compound B], in data set [1] (Table 2), the polydispersity turned out to be 0.060 and the “size nm” value stood at 79.0 nm. The “Apparant Pka” value in data set [2] (Table 2) is 7.33. The “Encapsulation Efficiency” value in data set [3] (Table 2) came to 100.0%. Besides, the “Expression at 6 h” value in data set [4] amounted to 0.44 µg/mL.

In data set [1] (Table 3), `CCCCCCCCC(CCCCCCCC)CNC(=O)CCCCCN(CCCCCC(=O)NCC(CCCCCCCC)CCCCCCCC)CCN(CCO)C1CCCCC1` [Compound 137] had a polydispersity of 0.029 and a size nm of 60.84 nm. The “Apparant Pka” value in data set [2] (Table 3) was found to be 6.751. The “Encapsulation Efficiency” value in data set [3] (Table 3) was 95.29%. Also, the “Expression at 6 h (μg/ml)” value in data set [4] is given as “A (≥2)”.

For `CCCCCCCCC(CCCCCC)CNC(=O)CCCCCN(CCCCCC(=O)NCC(CCCCCC)CCCCCCCC)CCN(CCC)C1CCC(O)CC1` (stereo not drawn) [Compound 135], in data set [1] (Table 3), the polydispersity was found to be 0.035 and the size nm stood at 104.1 nm. The “Apparant Pka” value in data set [2] (Table 3) was determined as 6.652. Moreover, in data set [3] (Table 3), the “Encapsulation Efficiency” value came out at 85.6%. Moreover, the “Expression at 6 h (μg/ml)” value in data set [4] was “C (≥0.1 and <1)”.

In data set [1] (Table 3), `CCCCC/C=C\CCCC(CCC/C=C\CCCCC)OC(=O)CCCCCN(CCCCCC(=O)OCCC/C=C/CCCCC)CCN(CCO)C1CCC1` [Compound 63] yielded a polydispersity of 0.088 and a size nm of 94.11 nm. The “Apparant Pka” value in data set [2] (Table 3) stood at 6.406. Besides, in data set [3] (Table 3), the “Encapsulation Efficiency” value is 85.9%. Moreover, the “Expression at 6 h (μg/ml)” value in data set [4] is “B (≥1 and <2)”.

On to `CCCCCCCCC(CCCCCC)COC(=O)CCCCCN(CCCCCC(=O)OCC(CCCCCC)CCCCCCCC)CCN(CCO)CCCC` (stereo not drawn) [Compound C], for which, in data set [1] (Table 2), the polydispersity is 0.061 and the “size nm” value turned out to be 65.0 nm. Further, the “Apparant Pka” value in data set [2] (Table 2) is reported as 6.46. The “Encapsulation Efficiency” value in data set [3] (Table 2) is listed as 96.9%. For the same compound, the “Expression at 6 h” value in data set [4] came out at 2.95 µg/mL.

Take `CCCCCCCCC(CCCCCC)CC(=O)OCCCCCN(CCCCCOC(=O)CC(CCCCCC)CCCCCCCC)CCN(CCO)C1CCC1` (stereo not drawn) [Compound 20]: in data set [1] (Table 3), the polydispersity stood at 0.103 and the size nm is 76.79 nm. Moreover, in data set [2] (Table 3), the “Apparant Pka” value turned out to be 6.252. In data set [3] (Table 3), the “Encapsulation Efficiency” value was 98.1%. For the same compound, the “Expression at 6 h (μg/ml)” value in data set [4] was “A (≥2)”.

`CCCCCCCCCCCOC(=O)CCCCCN(CCCCCC(=O)NCC(CCCCCCCC)CCCCCCCC)CCN(CCO)C1CCCC1` [Compound 147]: in data set [1] (Table 3), the polydispersity worked out at 0.082 and the size nm is reported as 69.58 nm. In addition, in data set [2] (Table 3), the “Apparant Pka” value is 7.304. Moreover, the “Encapsulation Efficiency” value in data set [3] (Table 3) worked out at 91.4%. For the same compound, the “Expression at 6 h (μg/ml)” value in data set [4] was “A (≥2)”.

In data set [1] (Table 3), `CCCCCCCCC(CCCCCCCC)COC(=O)CCCCCN(CCCCCC(=O)OCC(CCCCCCCC)CCCCCCCC)CCN(CCO)C1CCOC1` (stereo not drawn) [Compound 87] registered a polydispersity of 0.037 and a size nm of 65.71 nm. Moreover, in data set [2] (Table 3), the “Apparant Pka” value is 6.515. Also, in data set [3] (Table 3), the “Encapsulation Efficiency” value is 91.2%. In data set [4], the “Expression at 6 h (μg/ml)” value is listed as “A (≥2)”.

In data set [1] (Table 3), `CCCCCCCCC(CCCCCC)CC(=O)NCCCCCN(CCCCCNC(=O)CC(CCCCCC)CCCCCCCC)CCN(CCO)C1CCC1` (stereo not drawn) [Compound 105] returned a polydispersity of 0.042 and a size nm of 92.4 nm. The “Apparant Pka” value in data set [2] (Table 3) stood at 6.698. In data set [3] (Table 3), the “Encapsulation Efficiency” value is given as 93.3%. For the same compound, the “Expression at 6 h (μg/ml)” value in data set [4] is on record as “A (≥2)”.

With `CCCCCCC(CCCCCC)CNC(=O)CCCCCN(CCCCCC(=O)OCC(CCCCCC)CCCCCC)CCN(CCO)C1CCCCCC1` [Compound 141], in data set [1] (Table 3), the polydispersity turned out to be 0.036 and the size nm worked out at 71.93 nm. Besides, the “Apparant Pka” value in data set [2] (Table 3) is reported as 6.766. Moreover, the “Encapsulation Efficiency” value in data set [3] (Table 3) is 89.1%. Also, the “Expression at 6 h (μg/ml)” value in data set [4] is “A (≥2)”.

In data set [1] (Table 3), `CCCCCCCCC(CCCCCCCC)COC(=O)CCOCCN(CCOCCC(=O)OCC(CCCCCCCC)CCCCCCCC)CCN(CCO)C1CCCCC1` [Compound 104] displayed a polydispersity of 0.022 and a size nm of 70.93 nm. In addition, the “Apparant Pka” value in data set [2] (Table 3) is 6.184. For the same compound, the “Encapsulation Efficiency” value in data set [3] (Table 3) was found to be 89.96%. For the same compound, the “Expression at 6 h (μg/ml)” value in data set [4] is listed as “A (≥2)”.

In data set [1] (Table 3), `CCCCCCCCC(CCCCCCCC)COC(=O)CCCCCN(CCCCCC(=O)OCC(CCCCCCCC)CCCCCCCC)CCN(C)C1CCC(O)CC1` (stereo not drawn) [Compound 73] yielded a polydispersity of 0.027 and a size nm of 78.99 nm. The “Encapsulation Efficiency” value in data set [3] (Table 3) is 93.1%. In data set [4], the “Expression at 6 h (μg/ml)” value is “C (≥0.1 and <1)”.

In data set [1] (Table 3), `CCCCCCCCC(CCCCCCCC)CNC(=O)CCCCCN(CCCCCC(=O)OCC(CCCCCCCC)CCCCCCCC)CCN(CCO)C1CCCC1` [Compound 136] registered a polydispersity of 0.063 and a size nm of 61.17 nm. The “Encapsulation Efficiency” value in data set [3] (Table 3) is given as 94.29%. For the same compound, the “Expression at 6 h (μg/ml)” value in data set [4] is on record as “A (≥2)”.

In data set [1] (Table 3), `CCCCCCCCC(CCCCCC)CC(=O)NCCCCCN(CCCCCOC(=O)CC(CCCCCC)CCCCCCCC)CCN(CCO)C1CCCCCC1` (stereo not drawn) [Compound 132] came in with a polydispersity of 0.129 and a size nm of 70.33 nm. The “Encapsulation Efficiency” value in data set [3] (Table 3) was determined as 88.00%. Also, the “Expression at 6 h (μg/ml)” value in data set [4] is listed as “A (≥2)”.

For the compound `CCCCCCCCC(CCCCCC)CNC(=O)CCCCCN(CCCCCC(=O)NCC(CCCCCC)CCCCCCCC)CCN(CCO)C1CCC1` (stereo not drawn) [Compound 107], in data set [1] (Table 3), the polydispersity is 0.11 and the size nm is listed as 106.9 nm. For the same compound, the “Encapsulation Efficiency” value in data set [3] (Table 3) was determined as 95.64%. Further, the “Expression at 6 h (μg/ml)” value in data set [4] is given as “A (≥2)”.

For the compound `CCCCCCCCC(CCCCCC)COC(=O)CCCCCN(CCCCCC(=O)OCC(CCCCCC)CCCCCCCC)CCN1CCC(O)CC1` (stereo not drawn) [Compound 96], in data set [1] (Table 3), the polydispersity is listed as 0.101 and the size nm worked out at 85.98 nm. Moreover, the “Encapsulation Efficiency” value in data set [3] (Table 3) is given as 96.9%. For the same compound, the “Expression at 6 h (μg/ml)” value in data set [4] was “D (<0.1)”.

In data set [1] (Table 3), `CCCCCCCCC(CCCCCC)C(=O)OCCCCCCN(CCCCCCOC(=O)C(CCCCCC)CCCCCCCC)CCN(CCO)C1CCC1` (stereo not drawn) [Compound 45] registered a polydispersity of 0.032 and a size nm of 71.47 nm. Besides, in data set [3] (Table 3), the “Encapsulation Efficiency” value was 96.6%. The “Expression at 6 h (μg/ml)” value in data set [4] is reported as “A (≥2)”.

In data set [1] (Table 3), `CCCCCCCCC(CCCCCC)CNC(=O)CCCCCN(CCCCCC(=O)OCC(CCCCCC)CCCCCCCC)CCN(CCO)C1CCCCC1` (stereo not drawn) [Compound 127] showed a polydispersity of 0.111 and a size nm of 77.12 nm. The “Encapsulation Efficiency” value in data set [3] (Table 3) turned out to be 98.70%. Also, the “Expression at 6 h (μg/ml)” value in data set [4] is given as “A (≥2)”.

The values are drawn from patent US11472766B2, “Lipid nanoparticle composition” (Suzhou Abogen Biosciences Co., Ltd., priority 2020, dated 2022).
